Reference: US20250027123A1, “Compositions, Systems, and Methods for Performing a Mannich Cyclization Reaction” (The Regents of the University of California, priority 2023, published 2025)

Legend:
LolT [1] = molecular target: T1, LolT (Penicillium expansum, UniProt A0A0A2J6G6); assay type: biochemical; settings: 10 μM LolT, 4 mM diamino acid, pH 7.5 in D2O, 28° C.
Description: FIGS. 16A-16D provides reaction schematics and data of hydrogen-deuterium exchange assay of LolT with diamino acid substrate analogues. All reactions were monitored by 1H-NMR spectra and boiled enzymes were used as control. For mass data analysis, the reaction mixtures were derivatized with Fmoc-Cl.
H/D exchange assay. […] Reaction was incubated at 28° C. and monitored by NMR and LC-MS (reaction mixture was derivatized with Fmoc-Cl as described above before MS analysis). Fully deuterated products were further derivatized with Marfey's reagent (TCL) for chiral analysis. Briefly, an 80 μL reaction mixture was mixed with 20 μL acetone solution of Marfey's reagent (50 mM) and 20 μL NaHCO3 solution (1 M). The resulting mixture was incubated in a 42° C. water bath for 30 min. Next, 10 μL HCl (2M) was added to the derivatization mixture to quench the reaction. The resultant solution was analyzed on a Shimadzu LC-40 HPLC equipped with a Cosmosil, C18 AR-II analytical column. Derivatized amino acids were eluted with a linear gradient from 10% acetonitrile and to 40% acetonitrile over 20 min with a flow rate at 1 mL/min. All HPLC solvents (water and acetonitrile) were supplemented with 0.1% (v/v) formic acid.

LolD = molecular target: T2, LolD (Epichloe uncinata, UniProt Q5MNI5); assay: Enzymatic assay for LolD (conversion monitored by HPLC/LC-MS after Fmoc-Cl derivatization); assay type: biochemical, E. uncinate; settings: phosphate buffer pH 7.5, 28° C.
T2 construct: Bacterial expression plasmids were ordered from Twist Biosciences; made in house; host or cells: E. coli BL21(DE3)
T2 sequence (Q5MNI5 1-420): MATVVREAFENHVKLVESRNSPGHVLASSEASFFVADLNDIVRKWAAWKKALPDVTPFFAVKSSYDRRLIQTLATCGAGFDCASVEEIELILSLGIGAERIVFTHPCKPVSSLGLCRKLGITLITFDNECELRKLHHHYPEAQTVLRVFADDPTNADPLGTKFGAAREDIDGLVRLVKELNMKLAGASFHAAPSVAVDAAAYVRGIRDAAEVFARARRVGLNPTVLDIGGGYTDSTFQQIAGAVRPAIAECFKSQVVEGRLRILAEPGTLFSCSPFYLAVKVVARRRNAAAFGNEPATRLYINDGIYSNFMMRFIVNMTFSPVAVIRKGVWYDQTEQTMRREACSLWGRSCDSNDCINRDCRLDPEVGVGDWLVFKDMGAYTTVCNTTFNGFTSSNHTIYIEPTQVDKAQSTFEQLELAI
Text: FIGS. 4A-4D provides schematics and data identifying LolT as a PLP-dependent Mannich cyclase. FIG. 4A provides a schematic depicting an elucidated pathway for the pyrrolizidine formation of loline. FIG. 4B provides HPLC analysis showing the reactions catalysed by LolT and LolD. All reactions were repeated for at least 3 times. Products were derivatized with Fmoc-Cl and analyzed by HPLC using a C18 column (Phenomenex Kinetex, 1.7 μm, 2.0×100 mm) with a linear elution gradient of 2-98% MeCN—H2O solvent system supplemented with 0.1% formic acid as additive. FIG. 4C provides DFT-calculated Mannich cyclization transition state for anti TS-1. FIG. 4D provides DFT-calculated Mannich cyclization transition state for syn TS-2.
FIGS. 7A-7B provides data of control experiments testing the function LolT and LolD using alternative substrates. FIG. 7A: Incubating LolD (10 μM) with 2 (1 mM) in phosphate buffer (pH 7.5) for 12 hrs at 28° C. FIG. 7B: Incubating LolT (1 μM) with decarboxylated 2 (1 mM) in phosphate buffer (pH 7.5) for 12 hrs at 28° C. All reactions were derivatized with Fmoc-Cl (50 mM) and analyzed by HPLC and LCMS. Decarboxylated 2 was prepared in situ by global deprotection of 12b, synthesis of 12b.
Enzymatic assays for LolT and LolD. […] The product was quantified based on the peak area of derivatized sample and compared with standard curve. […]

LolT [2] = molecular target: T1, LolT; assay: Steady-state kinetic analysis of LolT-catalyzed Mannich cyclization; assay type: biochemical, P. expansum; settings: reaction forming the named product
Description: FIGS. 10A-10B provide data of steady-state kinetic study of LolT and LolD. […] The results from both Fmoc-Cl and OPA derivatization were shown for comparison.
FIG. 10B: Kinetic analysis of LolD-catalyzed nonoxidative decarboxylation. All reactions were performed in assay buffer: phosphate buffer (pH 7.5), 50 μM PLP, corresponding substrate at various concentrations. For 5-endo cyclization, LolT was added to a final concentration of 0.1 μM and the reaction was quenched after 1 min; while for 6-endo cyclization, LolT was added to a final concentration of 1 μM and the reaction was quenched after 1 min, and for 7-endo cyclization, LolT was added to a final concentration of 10 μM and the reaction was quenched after 5 min. For decarboxylation reaction, LolD was added to a final concentration of 1 μM and the reaction was quenched after 20 min. The derivatization method was described in the methods section. All assays were performed in triplicates at 28° C. and individual point was shown on the plot. Except for reaction forming 5, all data were fitted to the standard Michalis-Menton equation.
Enzymatic assays for LolT and LolD. A typical reaction mixture (˜50 μl) includes ˜1 mM amino acid substrate in the assay buffer (50 mM K2HPO4, 50 μM PLP, pH 7.5). […] The product was quantified based on the peak area of derivatized sample and compared with standard curve. […]

LolT [3] = molecular target: T1, LolT; assay: Two-component Mannich cyclization assay; assay type: biochemical, P. expansum; settings: diamino acid plus aldehyde, KPi buffer
Description: Two-component Mannich cyclization assay. A typical reaction mixture at analytical scale (˜50 μL) includes 5 μM LolT, 5 mM diamino acid substrate, and 25 mM aldehyde substrates in 50 mM KPi buffer supplemented with 5% (v/v) DMSO. The reaction mixture was taken at different time points and derivatized with ortho-phthaldialdehyde (OPA) and 5-mercaptopentanoic acid before analysis on LC-MS. The pH value, reaction temperature, reaction time, and free PLP concentration (0.1%-10% mol) were optimized for selected reactions according to the analytic yield and diastereisomeric ratio (d.r.). Optimized reactions were scaled up to isolate the corresponding product for structural determination. To ease product isolation, the reaction mixtures were derivatized with Boc anhydride and isolated by reverse-phase chromatography. The isolated Boc-protected products were deprotected with TFA/CH2Cl2 and the isolation yields were calculated based on the Boc-protected form. To determine the enantiomeric excess (e.e.), isolated products were derivatized with Na-(5-fluoro-2,4-dinitrophenyl)-L-leucinamide and Na-(5-fluoro-2,4-dinitrophenyl)-D-leucinamide and separated on LC-MS. Briefly, 10 μL of amino acid product (10 mM in MeOH) was mixed with 10 μL of Na2CO3 (1 mM) and 10 μL of derivatizing reagent. […] The resulting mixture was analyzed by LC-MS.

T1 sequence (A0A0A2J6G6 entry or part of it): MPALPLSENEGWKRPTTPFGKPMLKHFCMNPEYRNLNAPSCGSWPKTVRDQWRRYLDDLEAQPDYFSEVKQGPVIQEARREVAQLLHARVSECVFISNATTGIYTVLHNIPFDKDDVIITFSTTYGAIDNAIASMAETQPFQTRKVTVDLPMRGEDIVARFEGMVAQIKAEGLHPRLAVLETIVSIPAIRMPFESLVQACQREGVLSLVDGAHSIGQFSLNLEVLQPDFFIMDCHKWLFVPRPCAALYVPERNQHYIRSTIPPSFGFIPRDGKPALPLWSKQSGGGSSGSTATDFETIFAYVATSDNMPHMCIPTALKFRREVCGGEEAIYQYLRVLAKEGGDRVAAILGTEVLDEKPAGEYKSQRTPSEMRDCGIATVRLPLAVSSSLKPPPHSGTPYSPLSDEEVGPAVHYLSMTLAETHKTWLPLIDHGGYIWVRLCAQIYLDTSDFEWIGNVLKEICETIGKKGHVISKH

Row | SMILES | Cα-H H/D exchange (carbanion formation) with LolT in D2O (in words) (LolT [1]) | decrease of catalytic efficiency in comparison with 5-endo-trig cyclization to make 3 (LolT [2]) | other results
1 | NCC[C@@H](N)C(=O)O [D-Dab] | no H/D exchange occurred | – | –
2 | NCC[C@H](N)C(=O)O [L-Dab, (S)-2,4-diaminobutanoic acid] | rapidly washed out | – | –
3 | N[C@@]1(C(=O)O)CCN2CCC[C@@H]21 [compound 3, (1S,7aR)-1-aminohexahydro-1H-pyrrolizine-1-carboylic acid] | – | – | conversion on incubation with LolD (in words) (LolD): quantitative conversion
4 | N[C@@]1(C(=O)O)CCCN2CCC[C@@H]21 [compound 5, (8S,8aR)-8-aminooctahydroindolizine-8-carboxylic acid] | – | ~12 fold | –
5 | N[C@@]1(C(=O)O)CCCCN2CCC[C@@H]21 [compound 7, (9S,9aR)-9-aminooctahydro-1H-pyrrolo[1,2-a]azepine-9-carboxylic acid] | – | ~1,000 fold | –
6 | NCCCC[C@H](N)C(=O)O [lysine] | – | – | Mannich cyclization as amino acid donor with aldehydes (in words) (LolT [3]): No Mannich cyclization reaction took place
